# Measurements from patent US6114310A, “Efflux pump inhibitors” (priority 1998, dated 2000).
# Test system: Pseudomonas aeruginosa PAM1001
# Experiment: microbe, parasite or virus in culture
# Type: cell-based
# Outline: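 Checkerboard broth microdilution (NCCLS) with the efflux pump inhibitor and levofloxacin, each diluted along one axis of the plate, in Mueller Hinton Broth. Inoculum 5×10^5 CFU/ml from early-log culture; incubation 20 h at 35° C. Growth read at 650 nm and visually.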
# [1] = Table 1, EPI Conc. μg/ml (number not given; column between 10 and 40 μg/ml)
# [2] = Table 2, EPI Conc. μg/ml (number not given; column between 10 and 40 μg/ml)
# [3] = Table 3, EPI Conc. μg/ml (number not given; column between 10 and 40 μg/ml)
# [4] = Table 4, EPI Conc. μg/ml (number not given; column between 10 and 40 μg/ml)
Substance,"Levofloxacin MIC Against P. aeruginosa PAM1001 in Presence of Efflux Pump Inhibitor (EPI), Minimum Inhibitory Concentration (Table 1, EPI Conc. 0 μg/ml)","Levofloxacin MIC Against P. aeruginosa PAM1001 in Presence of Efflux Pump Inhibitor (EPI), Minimum Inhibitory Concentration (Table 1, EPI Conc. 0.625 μg/ml)","Levofloxacin MIC Against P. aeruginosa PAM1001 in Presence of Efflux Pump Inhibitor (EPI), Minimum Inhibitory Concentration (Table 1, EPI Conc. 5 μg/ml)","Levofloxacin MIC Against P. aeruginosa PAM1001 in Presence of Efflux Pump Inhibitor (EPI), Minimum Inhibitory Concentration (Table 1, EPI Conc. 10 μg/ml)","Levofloxacin MIC Against P. aeruginosa PAM1001 in Presence of Efflux Pump Inhibitor (EPI), Minimum Inhibitory Concentration (Table 1, EPI Conc. 40 μg/ml)","Levofloxacin MIC Against P. aeruginosa PAM1001 in Presence of Efflux Pump Inhibitor (EPI), Minimum Inhibitory Concentration [1]","Levofloxacin MIC Against P. aeruginosa PAM1001 in Presence of Efflux Pump Inhibitor (EPI), Minimum Inhibitory Concentration (Table 2, EPI Conc. 0 μg/ml)","Levofloxacin MIC Against P. aeruginosa PAM1001 in Presence of Efflux Pump Inhibitor (EPI), Minimum Inhibitory Concentration (Table 2, EPI Conc. 0.625 μg/ml)","Levofloxacin MIC Against P. aeruginosa PAM1001 in Presence of Efflux Pump Inhibitor (EPI), Minimum Inhibitory Concentration (Table 2, EPI Conc. 5 μg/ml)","Levofloxacin MIC Against P. aeruginosa PAM1001 in Presence of Efflux Pump Inhibitor (EPI), Minimum Inhibitory Concentration (Table 2, EPI Conc. 10 μg/ml)","Levofloxacin MIC Against P. aeruginosa PAM1001 in Presence of Efflux Pump Inhibitor (EPI), Minimum Inhibitory Concentration (Table 2, EPI Conc. 40 μg/ml)","Levofloxacin MIC Against P. aeruginosa PAM1001 in Presence of Efflux Pump Inhibitor (EPI), Minimum Inhibitory Concentration [2]","Levofloxacin MIC Against P. aeruginosa PAM1001 in Presence of Efflux Pump Inhibitor (EPI), Minimum Inhibitory Concentration (Table 3, EPI Conc. 0 μg/ml)","Levofloxacin MIC Against P. aeruginosa PAM1001 in Presence of Efflux Pump Inhibitor (EPI), Minimum Inhibitory Concentration (Table 3, EPI Conc. 0.625 μg/ml)","Levofloxacin MIC Against P. aeruginosa PAM1001 in Presence of Efflux Pump Inhibitor (EPI), Minimum Inhibitory Concentration (Table 3, EPI Conc. 5 μg/ml)","Levofloxacin MIC Against P. aeruginosa PAM1001 in Presence of Efflux Pump Inhibitor (EPI), Minimum Inhibitory Concentration (Table 3, EPI Conc. 10 μg/ml)","Levofloxacin MIC Against P. aeruginosa PAM1001 in Presence of Efflux Pump Inhibitor (EPI), Minimum Inhibitory Concentration [3]","Levofloxacin MIC Against P. aeruginosa PAM1001 in Presence of Efflux Pump Inhibitor (EPI), Minimum Inhibitory Concentration (Table 4, EPI Conc. 0 μg/ml)","Levofloxacin MIC Against P. aeruginosa PAM1001 in Presence of Efflux Pump Inhibitor (EPI), Minimum Inhibitory Concentration (Table 4, EPI Conc. 0.625 μg/ml)","Levofloxacin MIC Against P. aeruginosa PAM1001 in Presence of Efflux Pump Inhibitor (EPI), Minimum Inhibitory Concentration (Table 4, EPI Conc. 5 μg/ml)",further results
D-Lysyl-β-N-(Ethylthioethyl)alanine 2-Naphthylamide Trifluoroacetate [Example 26],4 µg/mL,4 µg/mL,1 µg/mL,0.125 µg/mL,0.06 µg/mL,0.125 µg/mL,4 µg/mL,4 µg/mL,2 µg/mL,0.125 µg/mL,0.06 µg/mL,0.125 µg/mL,4 µg/mL,4 µg/mL,0.06 µg/mL,0.015 µg/mL,0.03 µg/mL,4 µg/mL,4 µg/mL,1 µg/mL,"Levofloxacin MIC Against P. aeruginosa PAM1001 in Presence of Efflux Pump Inhibitor (EPI), Minimum Inhibitory Concentration (Table 2, EPI Conc. […]): 4 µg/mL; Levofloxacin MIC Against P. aeruginosa PAM1001 in Presence of Efflux Pump Inhibitor (EPI), Minimum Inhibitory Concentration (Table 4, EPI Conc. 10 μg/ml): 0.25 µg/mL; Levofloxacin MIC Against P. aeruginosa PAM1001 in Presence of Efflux Pump Inhibitor (EPI), Minimum Inhibitory Concentration (Table 4, EPI Conc. 40 μg/ml): 0.03 µg/mL; Levofloxacin MIC Against P. aeruginosa PAM1001 in Presence of Efflux Pump Inhibitor (EPI), Minimum Inhibitory Concentration (Table 4, EPI Conc. […]): 4 µg/mL; Levofloxacin MIC Against P. aeruginosa PAM1001 in Presence of Efflux Pump Inhibitor (EPI), Minimum Inhibitory Concentration [4]: 0.125 µg/mL"
D-Ornithyl-D-phenylalanine quinoline-3-amide [Compound 7 (Table 2)],4 µg/mL,4 µg/mL,4 µg/mL,2 µg/mL,0.50 µg/mL,1 µg/mL,4 µg/mL,4 µg/mL,0.25 µg/mL,0.06 µg/mL,0.06 µg/mL,0.06 µg/mL,4 µg/mL,4 µg/mL,0.015 µg/mL,0.015 µg/mL,0.03 µg/mL,4 µg/mL,4 µg/mL,0.06 µg/mL,"Levofloxacin MIC Against P. aeruginosa PAM1001 in Presence of Efflux Pump Inhibitor (EPI), Minimum Inhibitory Concentration (Table 1, EPI Conc. […]): 4 µg/mL; Levofloxacin MIC Against P. aeruginosa PAM1001 in Presence of Efflux Pump Inhibitor (EPI), Minimum Inhibitory Concentration (Table 4, EPI Conc. 10 μg/ml): 0.03 µg/mL; Levofloxacin MIC Against P. aeruginosa PAM1001 in Presence of Efflux Pump Inhibitor (EPI), Minimum Inhibitory Concentration (Table 4, EPI Conc. 40 μg/ml): 0.03 µg/mL; Levofloxacin MIC Against P. aeruginosa PAM1001 in Presence of Efflux Pump Inhibitor (EPI), Minimum Inhibitory Concentration [4]: 0.03 µg/mL"
